target: CSF-1R (Homo sapiens, UniProt P07333); experiment: Peptide (non-phosphorylated) assay, fluorescence polarization competition immunoassay; format: biochemical; details: 0.7 nM CSF-1R, 308 μM SYEGNSYTFIDPTQ peptide, 1 mM ATP, 80 min; mean of at least three determinations; read-out: c-fms Peptide IC50
How it was run: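 Read-out is fluorescence polarization: after EDTA quench, anti-phosphotyrosine antibody plus PTK green tracer compete with the phosphorylated peptide for 30 min. The CSF-1R reaction itself ran 80 min at room temperature after ATP addition. DMSO (4%) wells served as controls, positive controls pre-treated with EDTA.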

Sequence of CSF-1R (P07333 20-972): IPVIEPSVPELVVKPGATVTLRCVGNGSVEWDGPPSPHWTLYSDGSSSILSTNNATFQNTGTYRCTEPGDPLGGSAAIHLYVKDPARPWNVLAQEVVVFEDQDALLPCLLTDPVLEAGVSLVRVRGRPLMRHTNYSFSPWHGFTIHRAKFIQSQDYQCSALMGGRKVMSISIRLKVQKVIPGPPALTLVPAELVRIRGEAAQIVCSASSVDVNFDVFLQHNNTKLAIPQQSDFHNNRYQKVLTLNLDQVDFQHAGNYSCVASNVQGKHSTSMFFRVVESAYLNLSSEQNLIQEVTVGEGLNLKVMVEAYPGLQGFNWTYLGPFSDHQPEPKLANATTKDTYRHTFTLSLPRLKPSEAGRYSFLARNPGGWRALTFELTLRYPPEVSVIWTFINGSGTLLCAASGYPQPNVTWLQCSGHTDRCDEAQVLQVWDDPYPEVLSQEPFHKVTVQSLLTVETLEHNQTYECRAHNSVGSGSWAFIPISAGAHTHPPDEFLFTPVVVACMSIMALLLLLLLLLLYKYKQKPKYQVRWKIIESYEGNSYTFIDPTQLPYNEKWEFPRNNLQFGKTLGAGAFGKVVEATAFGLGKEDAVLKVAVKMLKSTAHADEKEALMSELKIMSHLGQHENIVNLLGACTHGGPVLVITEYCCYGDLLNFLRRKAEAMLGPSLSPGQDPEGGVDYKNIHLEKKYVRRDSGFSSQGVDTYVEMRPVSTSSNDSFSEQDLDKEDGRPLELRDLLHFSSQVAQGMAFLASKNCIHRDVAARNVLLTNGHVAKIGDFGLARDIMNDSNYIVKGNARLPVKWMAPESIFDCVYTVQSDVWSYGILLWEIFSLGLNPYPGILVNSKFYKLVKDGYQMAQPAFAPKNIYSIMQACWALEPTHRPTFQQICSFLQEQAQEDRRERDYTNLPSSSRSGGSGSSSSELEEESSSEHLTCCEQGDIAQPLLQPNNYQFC

Structure (SMILES)	IC50 [nM]
CCNC(=O)c1cn(-c2ccc3c(c2)CCC3)c2nc(Nc3cccc(CCCN(C)C)c3)ncc2c1=O [Cpd 117, 2-[3-(3-dimethylamino-propyl)-phenylamino]-8-indan-5-yl-5-oxo-5,8-dihydro-pyrido[2,3-d]pyrimidine-6-carboxylic acid ethylamide]	6.5
CONC(=O)c1cn(-c2ccc(OC(F)(F)F)cc2)c2nc(Nc3ccc(C4CCN(CCO)CC4)cc3)ncc2c1=O [Cpd 162, 2-{4-[1-(2-hydroxyethyl)-piperidin-4-yl]-phenylamino}-5-oxo-8-(4-trifluoromethoxy-phenyl)-5,8-dihydropyrido[2,3-d]pyrimidine-6-carboxylic acid methoxy-amide]	2.1
CONC(=O)c1cn(-c2ccc3c(c2)CCC3)c2nc(Nc3ccc(C4CCN(CC(F)(F)F)CC4)cc3)ncc2c1=O [Cpd 292, 8-indan-5-yl-5-oxo-2-{4-[1-(2,2,2-trifluoro-ethyl)-piperidin-4-yl]-phenylamino}-5,8-dihydro-pyrido[2,3-d]pyrimidine-6-carboxylic acid methoxy-amide]	6
COCCNCCc1ccc(Nc2ncc3c(=O)c(C(=O)NOC)cn(-c4ccc5c(c4)CCC5)c3n2)cc1 [Cpd 98, 8-indan-5-yl-2-{4-[2-(2-methoxy-ethylamino)-ethyl]-phenylamino}-5-oxo-5,8-dihydro-pyrido[2,3-d]pyrimidine-6-carboxylic acid methoxy-amide]	1.4
CONC(=O)c1cn(-c2ccc3c(c2)CCC3)c2nc(Nc3ccc(CCN4CCC(F)(F)C4)cc3)ncc2c1=O [Cpd 241, 2-{4-[2-(3,3-difluoro-pyrrolidin-1-yl)-ethyl]-phenylamino}-8-indan-5-yl-5-oxo-5,8-dihydro-pyrido[2,3-d]pyrimidine-6-carboxylic acid methoxy-amide]	1.7
CONC(=O)c1cn(-c2ccc3c(c2)CCC3)c2nc(Nc3ccc(CCN4C5CCC4CC5)cc3)ncc2c1=O [Cpd 110, 2-{4-[2-(7-aza-bicyclo[2.2.1]hept-7-yl)-ethyl]-phenylamino}-8-indan-5-yl-5-oxo-5,8-dihydro-pyrido[2,3-d]pyrimidine-6-carboxylic acid methoxy-amide]	0.46
CONC(=O)c1cn(-c2ccc3c(c2)CCC3)c2nc(Nc3cccc(S(=O)(=O)CCN(C)C)c3)ncc2c1=O [Cpd 230, 2-[3-(2-dimethylamino-ethanesulfonyl)-phenylamino]-8-indan-5-yl-5-oxo-5,8-dihydro-pyrido[2,3-d]pyrimidine-6-carboxylic acid methoxy-amide]	1.1
CCc1ccc(-n2cc(C(=O)NOC)c(=O)c3cnc(Nc4ccc(OCCOC)cc4)nc32)cc1 [Cpd 257, 8-(4-ethyl-phenyl)-2-[4-(2-methoxy-ethoxy)-phenylamino]-5-oxo-5,8-dihydro-pyrido[2,3-d]pyrimidine-6-carboxylic acid methoxy-amide]	1.2
CONC(=O)c1cn(-c2ccc3c(c2)CCC3)c2nc(Nc3ccc(CCN4CCC(=O)CC4)cc3)ncc2c1=O [Cpd 83, 8-indan-5-yl-5-oxo-2-{4-[2-(4-oxo-piperidin-1-yl)-ethyl]-phenylamino}-5,8-dihydro-pyrido[2,3-d]pyrimidine-6-carboxylic acid methoxy-amide]	1
CN(C)C(=O)c1ccc(Nc2ncc3c(=O)c(C(N)=O)cn(-c4ccc5c(c4)CCC5)c3n2)cc1 [Cpd 123, 2-(4-dimethylcarbamoyl-phenylamino)-8-indan-5-yl-5-oxo-5,8-dihydro-pyrido[2,3-d]pyrimidine-6-carboxylic acid amide]	4.5
CCc1ccc(-n2cc(C(=O)NOC)c(=O)c3cnc(Nc4ccc(CCN5CCCC5=O)cc4)nc32)cc1 [Cpd 54, 8-(4-ethyl-phenyl)-5-oxo-2-{4-[2-(2-oxo-pyrrolidin-1-yl)-ethyl]-phenylamino}-5,8-dihydro-pyrido[2,3-d]pyrimidine-6-carboxylic acid methoxy-amide]	1.8
